In brackets after ≈: the same amount, converted by molar mass. Several values for one entry are separate records, joined by “and”; a condition that tells them apart may be missing. Identical values can stand only once.
Legend:
[1] = Solubility (physicochemical properties)
[2] = tested on: Human breast cancer cell line MCF-7; assay: Cell-cycle inhibiting activity, propidium iodide FACS analysis; assay type: cell-based; details: MCF7, G2 to M phase progression, read-out: concentration required for inhibiting the progression of the cell cycle by 50%
Angiogenesis = assay: Angiogenesis-suppressing activity, chorioallantoic membrane(CAM) assay; assay type: in vivo; details: Gallus gallus; 10 μg/ml, CAM of fertilized chicken eggs
Experimental: Angiogenesis was determined in accordance with the chorioallantoic membrane(CAM) assay method described in Kusaka et al., Biochem. Biophy. Res. Comm., 174, 1070(1991), using fertilized chicken eggs.
A fertilized chicken egg(Pulmuwon co., Korea) was incubated at 37-38° C. and a humidity of more than 90%. Here, 0 day-embryo means that the fertilized egg had been stored at 18° C. for less than 4 days since laying.
The pointed end of the fertilized egg was scratched with a knife, laid horizontally, the scratched site was punctured with a 5 ml syringe and 2 ml of albumin was extracted from the fertilized egg. The puncture hole was then sealed with a glass-tape. The fertilized egg, positioned such that the sealed hole was at the bottom, was incubated under the same condition described above.
The end of the fertilized egg where the air sac is located, i.e., the end opposite to the hole site was opened, a window having a diameter of 2-3 cm was installed therein, the window was sealed with a glass-tape, and the incubation was resumed.
By this time, a CAM of 2-5 mm diameter had developed. 8-Acetylarteminolide was dissolved in ethanol to a concentration of 10 μg/ml, 10 μl of the solution was dropped on quartered Thermanox coverslip(Nunc, Co.,) and dried in a clean bench. […]
Angiogenesis suppressing activity was then calculated in accordance with the following equation: [formula]

[3] = molecular target: T1, farnesyl-protein transferase(FPTase) (Rattus norvegicus, UniProt Q02293+Q04631); assay: Farnesyl-protein transferase inhibiting activity, scintillation proximity assay (SPA); assay type: biochemical, white rat; details: rat cerebrum FPTase, 3H-FPP, biotin-lamin B peptide; read-out: concentration required for inhibiting farnesyl protein transferase by 50%(IC50) (converted)
T1 construct: the cerebrum of a white rat(male Sprague Dowley weighing 100-150 g) was washed with physiological saline solution and homogenized; from tissue; host or cells: rat cerebrum (male Sprague Dawley)
Experimental: Farnesyl-protein transferase(FPTase) activity was determined in accordance with the scintillation proximity assay(SPA) method of Blown et al. described in Cell, 62, 1(1990) by using ^3H-farnesyl pyrophosphate(^3H-FPP) as a substrate.
First, the cerebrum of a white rat(male Sprague Dowley weighing 100-150 g) was washed with physiological saline solution and homogenized. The homogenized solution was centrifuged and partially purified by using Q sepharose fast flow column(Pharmacia, co.) to obtain famnesyl protein transferase(FPTase).
10 μl of 8-acetylarteminolide, 40 μl of FPTase obtained above, 10 μl of an assay buffer(50 mM Tris-HCl, pH 7.5, 25 mM MgCl2, 2 mM KCl, 5 mM DTT, 5 mM Na2HPO4, 0.01% Triton X-100), 20 μl of diluted ^3H-FPP and 20 μl of biotin-lamin B peptide were mixed together and the resulting mixture was reacted at room temperature for 30 minutes. 150 μl of SPA bead/stop reagent solution(Amersham, Inc. UK) was added to the mixture and the enzymatic activity was determined by examining the extent of biotin-lamin B peptide farneslyation, expressed by unit of count per minute(CPM), with a liquid scintillation counter.
The FPTase inhibiting activity was then calculated in accordance with the following equation: [formula] […]

[4] = tested on: Human breast cancer cell line MCF-7; assay: Cell-cycle inhibiting activity, propidium iodide FACS analysis; assay type: cell-based; details: for % of cells G0/G1 phase / % of cells G2/M phase / % of cells S phase: 7.5 μl of 5 mg/ml DMSO solution in 7.5 ml medium
Experimental: Human breast cancer cell line MCF-7(ATCC HTB-22) was divided into 7.5 ml portions of RPMI1640 culture medium(GIBCO BRL) kept in T25 flasks and incubated at 37° C. under an atmosphere containing 5% CO2 for 12 hours. Added to the cell cultures of one group of flasks was 7.5 μl of DMSO solution containing 5 mg/ml of 8-acetylarteminolide obtained in Example 1, while 7.5 μl of pure DMSO was added to the cultures of another group of flasks as a control, followed by incubation at 37° C. under an atmosphere containing 5% CO2 for 12, 24 and 36 hours, respectively.
To examine the activity of inventive compound in inhibiting the progression of the cell cycle, each of the cultures was treated with trypsin and centrifuged at 200×g for 5 minutes, and then, the cell precipitate was washed twice with cold PBS. 3 ml of 70% ethanol was added thereto and the resulting mixture was left standing at −20° C. for 12 hours to fix the cell. The resulting mixture was centrifuged at 200×g for 5 minutes and the cell precipitate was washed twice with PBS to remove remaining ethanol. Added to the cell precipitate in sequence were 1 ml of PBS and 50 μl RNase A solution(100 μg/ml). The mixture was reacted at 37° C. for 30 minutes and 10 μl of PBS containing 1 mg/ml of propidium iodide was added thereto.
The cell cycles of 20,000 stained cells were analyzed by using Becton-Dickinson FACS Calibur and Becton-Dickinson Modifit cell-cycle analysis program.

Solubility Insoluble: ([1]; solvents in which insoluble): hexane, H2O
Solubility Soluble: ([1]; solvents in which soluble): alcohol, acetone, chloroform, DMSO
IC50 [2]: ~5 µg/mL (≈ 9.11 µM)
IC50 [3]: ~1820 nM and ~1800 nM and 1820 nM and 1800 nM
Structure (SMILES): C=C1C(=O)OC2C1CCC(C)(O)C13C=CC(C)(C21)C1(C3)C(=O)OC2C3C(C)=CC(=O)C3=C(C)CC(OC(C)=O)C21 (stereo not shown) [8-acetylarteminolide]
inhibition at 10 µg/mL (Angiogenesis): 60%
% of cells G0/G1 phase ([4]; MCF-7, 12 hours): 47.59%
% of cells G2/M phase ([4]; MCF-7, 12 hours): 18.06%
% of cells S phase ([4]; MCF-7, 12 hours): 34.35%
percentage of cells in the G2/M phase compared to the control cells ([4]; MCF-7, 24 hours): 10 fold
% of cells G0/G1 phase ([4]; MCF-7, 24 hours): 47.49%
% of cells G2/M phase ([4]; MCF-7, 24 hours): 27.97%
% of cells S phase ([4]; MCF-7, 24 hours): 24.54%
percentage of cells in the G2/M phase compared to the control cells ([4]; MCF-7, 36 hours): two-fold higher
% of cells G0/G1 phase ([4]; MCF-7, 36 hours): 73.2%
% of cells G2/M phase ([4]; MCF-7, 36 hours): 19.79%
% of cells S phase ([4]; MCF-7, 36 hours): 7.01%

Reference: patent US6387948B1, “8-Acetylarteminolide and process for preparing same” (Korea Research Institute of Bioscience and Biotechnology, priority 2000, dated 2002)
